# Reference: US20130131008A1, “LIPOPHILIC MONOPHOSPHORYLATED DERIVATIVES AND NANOPARTICLES” (BOARD OF REGENTS, THE UNIVERSITY OF TEXAS SYSTEM, priority 2011, published 2013)
# Like-named read-outs stand apart in the source and are kept apart here.
# Columns and labels:
# [1] = test system: TC-1 mouse lung cancer cells (s.c. tumors); test: Anti-tumor activity of PLGA-GemC18-NPs in TC-1 tumor-bearing mice (Example 19); format: in vivo; details: C57BL/6 mice, i.v. twice a week from day 11, 150 μg GemC18 per mouse per dose or molar equivalent gemcitabine HCl
# Description: The anti-tumor activity of the PLGA-GemC18-NPs was evaluated in female C57BL/6 mice (18-20 g, 6-8 weeks, n=4-5) that were subcutaneously (s.c.) injected with TC-1 mouse lung cancer cells (ATCC # CRL-2785, 5×10^5 cells/mouse) in the right flank. Mouse hair was carefully trimmed at the injection site 1 day prior to the injection. PLGA-GemC18-NPs, GemC18-free NP (PLGA-NPs), gemcitabine hydrochloride (HCl) (U.S. Pharmacopeia; Rockville, Md.) and sterile mannitol (5%, w/v) were intravenously (i.v) injected starting on day 11, twice a week until the end of the study. The dose of the GemC18 was 150 μg per mouse per dose, or the molar equivalent dose for gemcitabine HCl. Tumor size was determined 2-3 times a week and calculated using the formulas: diameter (mm)=[length+width]/2.
# PANC-1 cells [2] = details: literature value; read-out: IC50 in PANC-1 cells reported by Duxbury et al.; cited from earlier work
# PANC-1 cells [3] = test: In vitro cytotoxicity assay (MTT), 96 h, RRM2 over-expressing cells; format: cell-based, human; details: for Ratio of IC50 in PANC-1 to that in MIA PaCa-2: HCl
# Description: Human leukemia cell line CCRF-CEM (CCL-119), human pancreatic cancer cell lines PANC-1 (CRL-1469), MIA PaCa-2 (CRL-1420), and BxPC-3 (CRL-1687), human breast adenocarcinoma cell line MCF-7 (HTB-22), and mouse lung cancer cell line TC-1 (CRL-2785) were from the American Type Culture Collection (Rockville, Md.). CCRF-CEM-AraC-8C cells (hENT1 deficient) and CCRF-CEM/dCK^−/− cells (dCK deficient) were kindly provided by Dr. Buddy Ullmann (Oregon Health & Science University, Portland, Oreg.) and Dr. Margaret Black (Washington State University, Pullman, Wash.), respectively. L1210 wt and L1210 10K were kindly supplied by Dr. Lars Petter Jordheim (Université Claude Bernard Lyon I, Lyon, France). TC-1-GR cells were previously developed in our lab. CCRF-CEM, CCRF-CEM-AraC-8C, CCRF-CEM/dCK^−/−, L1210 wt, L1210 10K, TC-1, and TC-1-GR cells were cultured in RPMI 1640 medium. MCF-7 and PANC-1 cells were cultured in Dulbecco's modified Eagle medium (DMEM), MIA PaCa-2 cells were cultured in DMEM medium with 2.5% horse serum. All media were supplemented with 10% fetal bovine serum (FBS), 100 U/mL of penicillin, and 100 μg/mL of streptomycin (all from Invitrogen, Carlsbad, Calif.).
# Cells (5,000/well) were seeded in 96-well plates. After overnight incubation, they were treated with various concentrations of gemcitabine HCl, gemcitabine derivatives, or gemcitabine derivatives in nanoparticles at 37° C., 5% CO2. TC-1 and TC-1-GR cells were incubated for 48 h. CCRF-CEM, CCRF-CEM-AraC-8C, CCRF-CEM/dCK^−/−, L1210 wt, L1210 10K, and MCF-7 cells were incubated for 72 h, and MIA PaCa-2 and PANC-1 for 96 h. Gemcitabine HCl was dissolved in phosphate-buffered saline (PBS), and gemcitabine derivatives were dissolved in dimethyl sulfoxide (DMSO). […] The number of viable cells after the incubation was determined using an MTT assay. Briefly, 3-(4,5-dimethylthiazol-2-yl)-2,5-diphenyltetrazolium bromide (20 μl, 5 mg/mL) was added in each well and incubated for 3 h. Formazan crystals were solubilized with acidified isopropanol (150 μl) (for CCRF-CEM, CCRF-CEM-AraC-8C, CCRF-CEM/dCK^−/−, L1210 wt, and L1210 10K cells) or DMSO (150 μl) (for TC-1, TC-1-GR, MCF-7, PANC-1, and MIA PaCa-2). Absorbance was measured using a BioTek Synergy™ HT Multi-Mode Microplate Reader (BioTek Instruments, Winooski, Vt.) at 570 nm and 630 nm. The fraction of affected (dead) cells (Fa) and the fraction of unaffected (live) cells (Fu) at every dose were calculated, and the Log(Fa/Fu) values were plotted against the Log(concentration of gemcitabine). IC50 was the dose at Log(Fa/Fu)=0, See e.g., Chou, T. C. & Talalay, P., 1984, Adv. Enzyme Regul. 22:27-55. The experiment was repeated at least three times.
smiles,measurement,setting,value
"Cl.Nc1ccn([C@@H]2O[C@H](CO)[C@@H](O)C2(F)F)c(=O)n1 [Gemcitabine HCl, 2′,2′-difluorodeoxycytidine HCl, reference compound]",TC-1 tumor growth (tumor diameter),[1],only slightly delayed the TC-1 tumor growth
same,IC50,PANC-1 cells [2],50 nM
same,Ratio of IC50 in PANC-1 to that in MIA PaCa-2,PANC-1 cells [3],">8,000"
same,IC50,"PANC-1 cells [3]; Homo sapiens, PANC-1, MTT, 96 h incubation, RRM2 over-expressing",> 400000 nM
same,PANC-1 cells still alive,PANC-1 cells [3]; after 96 h of incubation with 400 μM,more than 50%
same,Ratio of IC50 in PANC-1 to that in MIA PaCa-2,PANC-1 cells [3]; listed as gemcitabine HCl,"more than 8,000"
